In patent publication US20170121344A1 (Siga Technologies, Inc., priority 2009, published 2017):
Counter-ions that a name gives are not always drawn.

These compounds were tested on Dengue-2 (Strain New Guinea C) (assay: Viral yield assay against Dengue-2 in Vero cells). Conditions: Dengue virus, DENV2, Vero, 48 h, read-out: Activity (EC50 in μM) DENV-2.
Type: cell-based, Dengue virus
In short: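 Yield reduction, Vero; MOI 0.1; compound vs DMSO; 37° C; harvest 48 h p.i.; titer on Vero; EC50 fitted. Other serotypes run the same way.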

Compound | EC50 [µM]
Cc1cccc(NC(=O)c2sc3nc(-c4cccs4)ccc3c2N)c1 [Compound 419, 3-amino-N-(m-tolyl)-6-(2-thienyl) thieno[2,3-b]pyridine-2-carboxamide] | < 5
COc1ccc(-c2ccc3c(N)c(C(=O)Nc4ccc(F)cc4)sc3n2)cc1OC [Compound 541, 3-amino-6-(3,4-dimethoxyphenyl)-N-(4-fluorophenyl)thieno[2,3-b]pyridine-2-carboxamide] | < 5

Same assay, conditions: Dengue virus, DENV2; viral yield assay, Vero cells, MOI 0.1, 48 hours post infection; read-out: Activity (EC50 in μM) DENV-2

Compound | EC50 [µM]
Cc1ccc2c(n1)sc1c(=O)n(-c3cccc(Br)c3)nnc12 [Compound 479, 3-(3-bromophenyl)-7-methylpyrido[3′,2′:4,5]thieno[3,2-d] [1,2,3]triazin-4(3H)-one] | < 5
Cc1c(C(=O)N(C)C2CCCC(C)C2)sc2nc(C(F)(F)F)ccc12 (stereo not shown) [Compound 399, N,3-dimethyl-N-(3-methylcyclohexyl)-6-(trifluoromethyl)thieno[2,3-b]pyridine-2-carboxamide] | < 5
Cc1ccc(-c2ccc3c(N)c(C(=O)Nc4ccccc4[N+](=O)[O-])sc3n2)cc1 [Compound 639, 3-amino-N-(2-nitrophenyl)-6-(p-tolyl) thieno[2,3-b]pyridine-2-carboxamide] | < 5
CCCCNC(=O)c1sc2nc3c(cc2c1N)CCCCC3 [Compound 282, 3-amino-N-butyl-6,7,8,9-tetrahydro-5H-cyclohepta [b]thieno[3,2-e]pyridine-2-carboxamide] | 5 to 25
COc1cccc(-c2ccc3c(N)c(C(=O)Nc4cc(OC)ccc4OC)sc3n2)c1 [Compound 496, 3-amino-N-(2,5-dimethoxyphenyl)-6-(3-methoxyphenyl)thieno[2,3-b]pyridine-2-carboxamide] | < 5
COc1ccccc1NC(=O)c1sc2nc(N3CCOCC3)cc(-c3ccccc3)c2c1O [Compound 385, 3-hydroxy-N-(2-methoxyphenyl)-6-morpholino-4-phenyl-thieno[2,3-b] pyridine-2-carboxamide] | 5 to 25
Cc1cccc(NC(=O)c2sc3nc(-c4ccc(Cl)cc4)ccc3c2N)c1 [Compound 632, 3-amino-6-(4-chlorophenyl)-N-(m-tolyl)thieno[2,3-b]pyridine-2-carboxamide] | < 5
COc1ccc(NC(=O)c2sc3nc(-c4ccc(OC)c(OC)c4)ccc3c2N)c(OC)c1 [Compound 536, 3-amino-N-(2,4-dimethoxyphenyl)-6-(3,4-dimethoxyphenyl)thieno[2,3-b]pyridine-2-carboxamide] | < 5
Cc1ccccc1NC(=O)c1sc2nc(-c3ccc(F)cc3)ccc2c1N [Compound 610, 3-amino-6-(4-fluorophenyl)-N-(o-tolyl) thieno[2,3-b]pyridine-2-carboxamide] | < 5
Cc1ccc(NC(=S)NNC(=O)c2sc3nc(-c4cccs4)cc(C(F)(F)F)c3c2C)cc1 [Compound 410, 1-[[3-methyl-6-(2-thienyl)-4-(trifluoromethyl)thieno[2,3-b]pyridine-2-carbonyl]amino]-3-(p-tolyl)thiourea] | < 5
Cc1cc(F)ccc1NC(=O)c1sc2nc(-c3ccc4c(c3)OCO4)ccc2c1N [Compound 593, 3-amino-6-(1,3-benzodioxol-5-yl)-N-(4-fluoro-2-methyl-phenyl)thieno[2,3-b] pyridine-2-carboxamide] | < 5
COc1cccc(-c2ccc3c(N)c(C(=O)Nc4cc(C)ccc4C)sc3n2)c1 [Compound 626, 3-amino-N-(2,5-dimethylphenyl)-6-(3-methoxyphenyl)thieno[2,3-b]pyridine-2-carboxamide] | < 5
Cc1cc(C)c2c(C)c(C(=O)N3c4ccccc4CC3C)sc2n1 (stereo not shown) [Compound 398, (2-methylindolin-1-yl)-(3,4,6-trimethyl-thieno[2,3-b]pyridin-2-yl)methanone] | 5 to 25
COc1cccc(-c2ccc3c(N)c(C(=O)Nc4ccc(Br)cc4F)sc3n2)c1 [Compound 556, 3-amino-N-(4-bromo-2-fluoro-phenyl)-6-(3-methoxyphenyl)thieno[2,3-b]pyridine-2-carboxamide] | < 5
COc1cccc(-c2ccc3c(N)c(C(=O)Nc4ccc(C)c(F)c4)sc3n2)c1 [Compound 523, 3-amino-N-(3-fluoro-4-methyl-phenyl)-6-(3-methoxyphenyl)thieno[2,3-b] pyridine-2-carboxamide] | < 5

Same assay, conditions: Dengue virus, Vero, 48 h, read-out: Activity (EC50 class) against Dengue-2 Virus in Vero cells

Compound | EC50 [µM]
N#Cc1cc2c(N)c(C(=O)Nc3ccccc3Br)sc2nc1N [Compound 134, 3,6-Diamino-5-cyano-thieno[2,3-b]pyridine-2-carboxylic acid (2-bromo-phenyl)-amide] | > 25
COCc1cc(C)nc2sc(C(=O)Nc3ccccc3C)c(N)c12 [Compound 210, 3-Amino-4-methoxymethyl-6-methyl-thieno[2,3-b]pyridine-2-carboxylic acid o-tolylamide] | > 25
Cc1cc(C)c2c(N)c(C(=O)NCc3ccco3)sc2n1 [Compound 258, 3-Amino-4,6-dimethyl-thieno[2,3-b]pyridine-2-carboxylic acid (furan-2-ylmethyl)-amide] | > 25
CN1CCc2nc3sc(C(=O)Nc4ccc(Cl)cc4)c(N)c3cc2C1 [Compound 13, 3-Amino-6-methyl-5,6,7,8-tetrahydro-thieno[2,3-b][1,6]naphthyridine-2-carboxylic acid (4-chloro-phenyl)-amide] | < 5
Nc1c(C(=O)Nc2ccc3ccccc3c2)sc2nc3c(cc12)CCC3 [Compound 91, 3-Amino-6,7-dihydro-5H-cyclopenta[b]thieno[3,2-e]pyridine-2-carboxylic acid naphthalen-2-ylamide] | 5 to 25
CN1CCc2nc3sc(C(=O)NC4CC4)c(N)c3cc2C1 [Compound 105, 3-Amino-6-methyl-5,6,7,8-tetrahydro-thieno[2,3-b][1,6]naphthyridine-2-carboxylic acid cyclopropylamide] | 5 to 25
Cc1nc2sc(C(N)=O)c(N)c2c(C)c1CC(=O)c1ccccc1 [Compound 72, 3-Amino-4,6-dimethyl-5-(2-oxo-2-phenyl-ethyl)-thieno[2,3-b]pyridine-2-carboxylic acid amide] | 5 to 25

Same assay, conditions: Dengue virus; Vero cells, MOI 0.1, harvested 48 hours post infection; read-out: Activity (EC50 class) against Dengue-2 Virus in Vero cells

Compound | EC50 [µM]
CC1(C)Cc2nc3sc4c(=O)n(Cc5ccc(Cl)cc5Cl)cnc4c3cc2CO1 [Compound 252, 2-(2,4-Dichloro-benzyl)-8,8-dimethyl-8,9-dihydro-2H,6H-7-oxa-11-thia-2,4,10-triaza-benzo[b]fluoren-1-one] | > 25
COCc1cc(C)nc2sc(C(=O)Nc3ccc(C(C)=O)cc3)c(N)c12 [Compound 141, 3-Amino-4-methoxymethyl-6-methyl-thieno[2,3-b]pyridine-2-carboxylic acid (4-acetyl-phenyl)-amide] | > 25
Nc1c(C(=O)Nc2cccc(C(F)(F)F)c2)sc2nc(-c3cccs3)ccc12 [Compound 3, 3-Amino-6-thiophen-2-yl-thieno[2,3-b]pyridine-2-carboxylic acid (3-trifluoromethyl-phenyl)-amide] | < 5
CC(NC(=O)c1sc2nc3c(cc2c1N)CN(C)CC3)[C@]12C[C@H]3C[C@H](C[C@H](C3)C1)C2 (stereo partly shown) [Compound 47, 3-Amino-6-methyl-5,6,7,8-tetrahydro-thieno[2,3-b][1,6]naphthyridine-2-carboxylic acid (1-adamantan-1-yl-ethyl)-amide] | < 5
CN1CCc2nc3sc(C(=O)Nc4ccccc4)c(N)c3cc2C1 [Compound 48, 3-Amino-6-methyl-5,6,7,8-tetrahydro-thieno[2,3-b][1,6]naphthyridine-2-carboxylic acid phenylamide] | < 5
Nc1c(C(=O)Nc2ccccc2)sc2nc3c(cc12)CCCCC3 [Compound 217, 3-Amino-6,7,8,9-tetrahydro-5H-1-thia-10-aza-cyclohepta[f]indene-2-carboxylic acid phenylamide] | > 25
Cc1cc(C)c2c(n1)sc1c(=O)n(-c3cccc(C(F)(F)F)c3)cnc12 [Compound 198, 7,9-Dimethyl-3-(3-trifluoromethyl-phenyl)-3H-pyrido[3′,2′:4,5]thieno[3,2-d]pyrimidin-4-one] | > 25
COc1ccc(-c2cc(-c3ccc(F)cc3)nc3sc(C(N)=O)c(N)c23)cc1OC [Compound 54, 3-Amino-4-(3,4-dimethoxy-phenyl)-6-(4-fluoro-phenyl)-thieno[2,3-b]pyridine-2-carboxylic acid amide] | < 5
Cc1cc(C(F)(F)F)nc2sc(C(=O)Nc3ccccc3I)c(N)c12 [Compound 131, 3-Amino-4-methyl-6-trifluoromethyl-thieno[2,3-b]pyridine-2-carboxylic acid (2-iodo-phenyl)-amide] | > 25
NC(=O)c1sc2nc(C3CC3)cc(-c3ccccc3)c2c1N [Compound 8, 3-Amino-6-cyclopropyl-4-phenyl-thieno[2,3-b]pyridine-2-carboxylic acid amide] | < 5
Nc1c(C(=O)Nc2nnc(-c3ccccc3)s2)sc2nc3c(cc12)CNCCC3 [Compound 52, 3-Amino-6,7,8,9-tetrahydro-5H-1-thia-6,10-diaza-cyclohepta[f]indene-2-carboxylic acid (5-phenyl-[1,3,4]thiadiazol-2-yl)-amide hydrochloride] | < 5
Cc1cc(C)c2c(N)c(C(=O)Nc3cc(C(F)(F)F)ccc3Cl)sc2n1 [Compound 186, 3-Amino-4,6-dimethyl-thieno[2,3-b]pyridine-2-carboxylic acid (2-chloro-5-trifluoromethyl-phenyl)-amide] | > 25

Same assay, conditions: Vero cells; read-out: Activity (EC50 in μM) DENV-2

Compound | EC50 [µM]
CC(=O)N(CCN)c1c(C(=O)Nc2nnc(-c3ccccc3)s2)sc2nc3c(cc12)CCCCC3 [Compound 314, 3-(N-(2-amino-ethyl)acetamido)-N-(5-phenyl-1,3,4-thiadiazol-2-yl)-6,7,8,9-tetrahydro-5H-cylcohepta[b]thieno[3,2-e]pyridine-2-carboxamide] | < 5
